{
  "source": "paper PMC10141604",
  "about": "“Small-Molecule Inhibition of Androgen Receptor Dimerization as a Strategy against Prostate Cancer” (ACS Central Science, 2023)",
  "key": {"MR": {"molecular_target": "T1, MR (Homo sapiens, UniProt P08235)", "T1 construct": "host or cells: HEK293T", "T1 sequence (P08235 1-984)": "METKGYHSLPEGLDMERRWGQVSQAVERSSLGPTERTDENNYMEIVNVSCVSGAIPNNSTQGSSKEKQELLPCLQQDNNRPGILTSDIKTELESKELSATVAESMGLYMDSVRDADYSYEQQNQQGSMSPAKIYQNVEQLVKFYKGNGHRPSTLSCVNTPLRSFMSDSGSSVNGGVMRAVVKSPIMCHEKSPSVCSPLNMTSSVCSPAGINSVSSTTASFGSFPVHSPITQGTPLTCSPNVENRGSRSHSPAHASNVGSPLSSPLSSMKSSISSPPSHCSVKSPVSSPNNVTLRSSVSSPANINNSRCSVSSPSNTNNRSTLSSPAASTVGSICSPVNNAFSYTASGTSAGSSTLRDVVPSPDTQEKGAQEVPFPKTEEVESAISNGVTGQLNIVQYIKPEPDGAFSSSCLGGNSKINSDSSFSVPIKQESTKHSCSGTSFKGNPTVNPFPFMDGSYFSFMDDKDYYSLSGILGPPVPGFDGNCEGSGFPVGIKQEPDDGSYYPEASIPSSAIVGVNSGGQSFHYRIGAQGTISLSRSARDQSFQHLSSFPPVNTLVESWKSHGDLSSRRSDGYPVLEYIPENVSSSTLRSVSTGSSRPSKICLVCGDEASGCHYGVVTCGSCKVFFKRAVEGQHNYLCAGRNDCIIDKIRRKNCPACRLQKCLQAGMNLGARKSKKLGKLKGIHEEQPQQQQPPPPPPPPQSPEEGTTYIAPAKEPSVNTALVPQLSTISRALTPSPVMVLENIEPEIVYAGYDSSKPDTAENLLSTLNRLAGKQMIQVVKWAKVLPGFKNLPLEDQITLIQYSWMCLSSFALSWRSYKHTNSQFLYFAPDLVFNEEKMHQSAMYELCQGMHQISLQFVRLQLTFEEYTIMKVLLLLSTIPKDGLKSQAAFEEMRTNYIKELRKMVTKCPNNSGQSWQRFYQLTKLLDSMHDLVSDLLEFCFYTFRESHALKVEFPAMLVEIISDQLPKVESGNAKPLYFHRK", "test": "Luciferase reporter assay for MR (HEK293T cells)", "type": "cell-based", "details": "0.4–10 μM, 5 nM aldosterone", "experimental": "(§1) Luciferase Reporter Assays for PR, GR, and MR\n(§2) PC3, HeLa, and HEK293T cells were cultured using 5% CSS RPMI-1640, 5% CSS RPMI-1640 and 10% FBS DMEM media in 96-well plates for 24 h, respectively. For PR induction, PC3 (1 × 10^4 cells/well) were transfected with 50 ng pcDNA3-PRB (#89130, Addgene), 24 ng pGL4.36[luc2P MMTV Hygro] (Promega) and 5 ng Renilla using HG-TransGeneTM transfection reagent (#TG-10012, Genomeditech) for 4 h. For GR induction, Hela (1 × 10^4 cells/well) were transfected with 71 ng pCMV -GR11 (#89105, Addgene), 24 ng pGL4.36[luc2P MMTV Hygro] (Promega) and 5 ng Renilla using lip3000 transfection reagent (#L3000075, Thermofisher) for 24 h. For MR induction, HEK293T (1 × 10^4 cells/well) were transfected with 71 ng pCMV-MR gifted by Liu et al. 28, 24 ng of pGL4.36[luc2P MMTV Hygro] (Promega) and 5 ng Renilla using lip3000 transfec tion reagent for 24 h. For the antagonistic models, 10 nM /well progesterone for PC3 cells , 1 nM/well dexamethasone for HeLa, and 5 nM/well aldosterone for HEK293T cells were added to stimulate the cells. Meanwhile, each cell line was treated with a series concentration of compounds (0.4, 2, and 10 μM). For the agonistic models, the cells were directly treated with the compounds without any hormones. Endogenous hormones progesterone, dexamethasone, and aldosterone were considered as agonists for PR, GR, and MR, respectively. The luciferase activities were assessed using the Dual-Glo Luciferase system (#E1910, Promega). […]"}, "PR": {"molecular_target": "T2, PR (Homo sapiens, UniProt P06401)", "T2 construct": "host or cells: PC3", "T2 sequence (P06401 1-933)": "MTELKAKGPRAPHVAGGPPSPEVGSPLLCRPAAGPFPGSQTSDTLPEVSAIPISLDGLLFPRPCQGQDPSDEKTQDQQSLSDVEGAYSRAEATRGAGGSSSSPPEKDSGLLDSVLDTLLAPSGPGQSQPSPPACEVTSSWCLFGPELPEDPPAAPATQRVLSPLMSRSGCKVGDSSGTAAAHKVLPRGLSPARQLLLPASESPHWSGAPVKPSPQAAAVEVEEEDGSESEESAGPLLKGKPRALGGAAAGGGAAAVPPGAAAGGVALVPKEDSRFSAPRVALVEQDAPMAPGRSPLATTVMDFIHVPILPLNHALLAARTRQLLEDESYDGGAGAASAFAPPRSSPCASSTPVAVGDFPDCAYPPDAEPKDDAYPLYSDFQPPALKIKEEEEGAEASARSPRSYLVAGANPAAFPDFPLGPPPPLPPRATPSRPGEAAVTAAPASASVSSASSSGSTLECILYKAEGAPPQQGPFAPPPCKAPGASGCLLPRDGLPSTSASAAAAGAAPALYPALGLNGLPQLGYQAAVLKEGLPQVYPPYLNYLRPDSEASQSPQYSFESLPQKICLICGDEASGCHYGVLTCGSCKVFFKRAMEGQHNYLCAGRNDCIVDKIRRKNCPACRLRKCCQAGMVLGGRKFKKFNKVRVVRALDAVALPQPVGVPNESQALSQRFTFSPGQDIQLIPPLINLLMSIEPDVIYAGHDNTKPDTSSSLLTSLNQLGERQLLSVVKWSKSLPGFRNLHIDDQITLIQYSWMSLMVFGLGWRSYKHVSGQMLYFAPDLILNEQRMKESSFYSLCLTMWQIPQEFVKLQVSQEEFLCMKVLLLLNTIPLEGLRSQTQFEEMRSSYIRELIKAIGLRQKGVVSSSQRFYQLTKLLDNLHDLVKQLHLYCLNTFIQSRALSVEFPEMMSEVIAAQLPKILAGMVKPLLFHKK", "test": "Luciferase reporter assay for PR (PC3 cells)", "type": "cell-based", "details": "0.4 μM, 10 nM progesterone", "experimental": "as §1, §2"}, "GR": {"molecular_target": "T3, GR (Homo sapiens, UniProt P04150)", "T3 construct": "host or cells: HeLa", "T3 sequence (P04150 1-777)": "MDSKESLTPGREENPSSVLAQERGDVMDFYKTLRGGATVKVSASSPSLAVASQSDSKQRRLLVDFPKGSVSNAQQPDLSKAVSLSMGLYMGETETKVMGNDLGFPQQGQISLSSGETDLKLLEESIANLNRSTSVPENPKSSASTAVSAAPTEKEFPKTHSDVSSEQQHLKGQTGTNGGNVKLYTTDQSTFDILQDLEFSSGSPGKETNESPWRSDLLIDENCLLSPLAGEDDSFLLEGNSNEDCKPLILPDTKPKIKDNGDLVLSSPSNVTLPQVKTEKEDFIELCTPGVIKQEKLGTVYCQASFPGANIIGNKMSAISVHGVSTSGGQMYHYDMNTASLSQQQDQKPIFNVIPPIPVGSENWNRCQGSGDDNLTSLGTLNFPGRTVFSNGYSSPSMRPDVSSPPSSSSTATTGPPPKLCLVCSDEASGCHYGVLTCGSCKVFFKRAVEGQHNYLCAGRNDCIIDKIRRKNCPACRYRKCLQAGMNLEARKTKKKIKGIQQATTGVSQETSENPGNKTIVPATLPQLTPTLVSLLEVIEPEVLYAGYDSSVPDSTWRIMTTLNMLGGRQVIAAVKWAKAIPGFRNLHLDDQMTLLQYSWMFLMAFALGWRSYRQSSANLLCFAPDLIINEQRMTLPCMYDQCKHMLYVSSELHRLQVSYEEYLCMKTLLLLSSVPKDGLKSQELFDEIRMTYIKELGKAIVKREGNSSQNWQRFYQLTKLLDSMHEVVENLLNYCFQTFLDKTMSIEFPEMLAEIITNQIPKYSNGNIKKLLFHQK", "test": "Luciferase reporter assay for GR (HeLa cells)", "type": "cell-based", "details": "0.4 μM, 1 nM dexamethasone", "experimental": "calculating volume (V= 0.5 × L × W2). Finally, the mice were sacrificed and the tumors were harvested for hematoxylin and eosin (H&E) staining.\nas §1\nAddgene), 24 ng pGL4.36[luc2P MMTV Hygro] (Promega) and 5 ng Renilla using HG- […]\nAddgene), 24 ng pGL4.36[luc2P MMTV Hygro] (Promega) and 5 ng Renilla using lip3000 transfection reagent (#L3000075, Thermofisher) for 24 h. For MR induction, HEK293T (1 × 10^4 cells/well) were transfected with 71 ng pCMV-MR gifted by Liu et al. 28, 24 ng of pGL4.36[luc2P MMTV Hygro] (Promega) and 5 ng Renilla using lip3000 transfec tion reagent for 24 h. For the antagonistic models, 10 nM /well progesterone for PC3 cells , 1 nM/well dexamethasone for HeLa, and 5 nM/well aldosterone for HEK293T cells were added to stimulate the cells. Meanwhile, each cell line was treated […]\nFor the agonistic models, the cells were directly treated with the compounds without any hormones. […]\nhormones progesterone, dexamethasone, and aldosterone were considered as agonists for PR, GR, and MR, respectively. The luciferase activities were assessed using the Dual-Glo Luciferase system (#E1910, Promega).\nCell Cycle and Apoptosis for LNCaP cells\nLNCaP were cultured in 6-well plate with 5× 10^5 cells/well, after incubated at 37 °C for […]\nCell cycle were determined after 48 h incubation by Cell Cycle Staining Kit (#CCS012, MULTI SCIENCES) using […]"}, "[1]": {"molecular_target": "wild type androgen receptor ligand-binding domain (AR LBD) (human)", "test": "cross-linking + other: SAXS; chemical cross-linking coupled with mass spectrometry (CXMS) of purified AR LBD; ensemble refinement against the cross-link restraints; dimer to monomer ratio fitted; with and without M17-B15"}},
  "data": [
    {"compound": "CC(=O)S[C@@H]1CC2=CC(=O)CC[C@]2(C)[C@H]2CC[C@@]3(C)[C@@H](CC[C@@]34CCC(=O)O4)[C@H]12", "note": "[abbolactone]", "values": [
      {"measurement": "MR antagonistic activity", "setting": "MR", "result": "potent"}
    ]},
    {"compound": "CC#C[C@]1(O)CC[C@H]2[C@@H]3CCC4=CC(=O)CCC4=C3[C@@H](c3ccc(N(C)C)cc3)C[C@@]21C", "note": "[mifepristone]", "values": [
      {"measurement": "PR antagonistic activity", "setting": "PR", "result": "> 90", "unit": "%"},
      {"measurement": "GR antagonistic activity", "setting": "GR", "result": "> 90", "unit": "%"}
    ]},
    {"compound": "wild type androgen receptor ligand-binding domain (AR LBD) (domain or fragment)", "values": [
      {"measurement": "proportion of the dimer (with M17-B15)", "setting": "[1]", "result": 15, "unit": "%"},
      {"measurement": "proportion of the dimer (without M17-B15)", "setting": "[1]", "result": 20, "unit": "%"}
    ]}
  ]
}
